Source: patent US4084006A, “Method of using dialkylphenols an antiviral agents” (priority 1977, dated 1978)

What was measured:
[1] = tested on: pneumonia virus of mice (PVM); assay: Serum PVM titers in rats; type: in vivo, pneumonia virus of mice (host: rat); details: for Mycoplasma infected rats that failed to show titers for PVM: sera of 19 infected rats
Text: (§1) Attempts were made to test the effect of infecting rats with Mycoplasma pulmonis (ATCC 19612) so that they could transmit the disease to their cage mates and, also allowed them to breed. This was also done to test if the mothers would pass the infection on to their litters. These rats were purchased from a laboratory in Indianapolis, Indiana and they were divided into 6 groups with male animals in each group. In the 5 experimental groups, a total of 15 female rats out of 30, and in the control group 4 female rats out of 8 were infected intranasally with Mycoplasma pulmonis (ATCC 19612). There were two male rats per experimental group and 3 for the controls totaling 13 male rats, and none of these were infected with M. pulmonis.
(§2) The experimental groups (8 rats each) and control group were treated as follows:
(§3) All rats were fed ad libitum rat chow, and their cages were cleaned 5-6 times weekly. For the 5 experimental groups, the 2,4 DMP was dissolved in distilled water used for their drinking fluid while the control only received distilled water. There were times when the rats spilled excessive amounts of their drinking water and this caused a certain amount of the phenol to be evaporated from these cages, particularly those groups receiving the higher concentrations of the phenol. This way, it was possible for the controls to inhale a small but indefinite amount of the phenol which is volatile. All animals were kept in the same laboratory room.
All the male animals (13) were sacrificed after 14 days, and after impregnating the females. Their blood was collected by heart puncture, and the animals lungs were saved in 10% formalin for pathology. All the female rats (18) that were not infected, except one, intranasally with M. pulmonis were sacrificed 30 days post infection of their cage mates. All the young born to these rats (non-infected), during this time were also sacrificed. The blood and lungs from the adult females were saved for study.
The 19 female rats infected with M. pulmonis and one non-infected female were allowed to raise their litters so that the young could be weaned, and then they were sacrificed 58 days post infection, saving their blood and lungs for study.
When the offsprings from the M. pulmonis infected mothers were 40-50 days old a proportionate number selected at random were sacrificed, saving blood and lungs for study:
The serum of each rat sacrificed was tested for antibodies for Mycoplasma. […] One of these rats was in the group receiving one part per million of the phenol and other was a control. Therefore, it was concluded that the Mycoplasma pulmonis was not the cause of the lung infection in these rats, but there was still enough pathology evident in these lungs to suspect some unknown infection. Consequently, the serum of the control rat showing a low titer for Mycoplasma pulmonis was screened by a commercial laboratory for virus infections commonly associated with rats.
All blood serums saved from these experiments were tested for PVM titers. Sera from eight of the 13 males sacrificed at 14 days had detectable titers. All three of these controls had titers indicating PVM infection leaving 5 treated rats with titers for PVM. In the 18 non-infected female rats that were sacrificed after 30 days two rats were negative for PVM titers, one was in the 1 PPM and the other was in the 1 PPB treated groups.

[2] = tested on: San Carlos virus; assay: Dimethylphenols against San Carlos virus in tissue culture (human embryonic lung), CPE; type: cell-based, San Carlos virus (adenovirus); details: for CPE with TCID50 doses of San Carlos virus: human embryonic lung, 100 TCID50
[3] = tested on: Herpes simplex virus (HF strain); assay: Inhibition of cytopathic activity (CPE) of herpes virus in HEL tissue culture; type: cell-based; details: for CPE with 100 TCID50 doses of Herpes virus: HEL cells
Method: The anti-viral activity of 2,4-dimethylphenol was studied in the following manner. Tissue cultures derived from human embryonic lung (HEL) were grown and maintained as monolayers in 32 ounce prescription bottles using growth medium consisting of 85% synthetic mixture No. 199 plus 15% unfiltered fetal bovine serum (FBS) adjusted to pH 7.4. Tube cultures of HEL cells were prepared in similar fashion and used in assays for anti-viral activity. During chemotherapy tests, the maintenance medium consisted of synthetic mixture No. 199 with 7.5% FBS. The virus spectrum in tissue culture consisted of two DNA viruses, a San Carlos virus isolated by Davis [see Science 133, 2059, 1961] and later identified as an adenovirus, and the HF strain of herpes simplex virus. In addition, a RNA virus represented by measles was included in the examples.
In performing the initial assays, the tissue cultures were treated prophylactically and the virus was treated in vitro with decreasing 2,4-dimethylphenol concentrations ranging from […] (2 × 10^-6) to 2 attograms (ag) (2 × 10^-18) per ml. The procedure consisted of pretreating tube cultures of HEL cells for two to three days with growth medium containing varying concentrations of 2,4-dimethylphenol. After the prophylactic treatment, the test fluids were removed and replaced with fresh maintenance medium. At this time, 200 TCID50 doses of virus were mixed in vitro with the same decreasing concentrations of the distillate used to pretreat the cells, then the mixture was inoculated into replicate culture of HEL cells so that the final incolum consisted of 100 TCID50 doses of virus in tubes with 2,4-dimethylphenol at the same level used to prophylactically treat the cells.
The same number of infected control tubes were handled in the same way except that 2,4-dimethylphenol was omitted from all media. Culture tubes were rotated at 37° C. and examined daily for a period of 7 days for cytopathic activity (CPE). […] By the same token, the CPE of herpes virus was inhibited by both the 10^-12 and 10^-15 level, possibly indicating two active components. […]

[4] = tested on: Mycoplasma pulmonis (ATCC 19612); assay: Rats infected intranasally with Mycoplasma pulmonis: lung pathology and breeding; type: in vivo, Mycoplasma pulmonis (host: rat); details: 1 PPB in drinking water 58 days; three M. pulmonis infected female rats
Text: as §1, §2
as §3, with “This way, it was possible for the controls to inhale a small but indefinite amount of the phenol which is volatile. All animals were kept in the same laboratory room.” left out

With `Cc1ccc(O)c(C)c1` [2,4-dimethylphenol] the “non-infected female rats negative for PVM titers” value ([1]; 1 PPM, sacrificed after 30 days, all controls positive) was “one”, the “offspring with detectable titers for PVM” value ([1]; 47 offsprings tested, treated groups and controls exposed to vapors) was “not one” and the “effect on PVM” value ([1]; 51 rats purchased, drinking water) was “appeared to have had an effect on this virus so as to depress its passage to other animals”. The “Mycoplasma infected rats that failed to show titers for PVM” value ([1]; 100 parts per billion) was “two”, the “treated male rats with titers for PVM” value ([1]; males sacrificed at 14 days, all treated groups, all three controls positive) was 5 and the “Mycoplasma infected rats that failed to show titers for PVM” value ([1]; one part per million) was “two”. The “CPE with TCID50 doses of San Carlos virus” value (“CPE with TCID50 doses” below) ([2]; 10^-6 grams 2X) was 3+ (75% of cells infected with selected virus), the “CPE with TCID50 doses” value ([2]; 10^-7 grams 2X) was 2+ (50% of cells infected with selected virus) and the “CPE with TCID50 doses” value ([2]; 10^-8 grams 2X) was “± (less than 10% infected)”. For the same compound, the “CPE with TCID50 doses” value ([2]; 10^-9 grams 2X) was “± (less than 10% infected)”, the “CPE with TCID50 doses” value ([2]; 10^-10 grams 2X) was “± (less than 10% infected)” and the “CPE with TCID50 doses” value ([2]; 10^-11 grams 2X) was 1+ (25% of cells infected with selected virus). For the same compound, the “CPE with TCID50 doses” value ([2]; 10^-12 grams 2X) was 1+ (25% of cells infected with selected virus), the “CPE with TCID50 doses” value ([2]; 10^-13 grams 2X) was 1+ (25% of cells infected with selected virus) and the “CPE with TCID50 doses” value ([2]; 10^-14 grams 2X) was 2+ (50% of cells infected with selected virus). For the same compound, the “CPE with TCID50 doses” value ([2]; 10^-15 grams 2X) was 2+ (50% of cells infected with selected virus), the “anti-viral activity against San Carlos virus” value ([2]; at various concentrations) was “exhibit anti-viral activity” and the “CPE with 100 TCID50 doses of Herpes virus” value (from here on “CPE with 100 TCID50 doses”) ([3]; 10^-6 grams 2X) was 3+ (75% of cells infected with selected virus). The “CPE with 100 TCID50 doses” value ([3]; 10^-7 grams 2X) was 3+ (75% of cells infected with selected virus), the “CPE with 100 TCID50 doses” value ([3]; 10^-8 grams 2X) was 2+ (50% of cells infected with selected virus) and the “CPE with 100 TCID50 doses” value ([3]; 10^-9 grams 2X) was 2+ (50% of cells infected with selected virus). The “CPE with 100 TCID50 doses” value ([3]; 10^-10 grams 2X) was 2+ (50% of cells infected with selected virus), the “CPE with 100 TCID50 doses” value ([3]; 10^-11 grams 2X) was 2+ (50% of cells infected with selected virus) and the “CPE with 100 TCID50 doses” value ([3]; 10^-12 grams 2X) was 1+ (25% of cells infected with selected virus). The “CPE with 100 TCID50 doses” value ([3]; 10^-13 grams 2X) was 2+ (50% of cells infected with selected virus), the “CPE with 100 TCID50 doses” value ([3]; 10^-14 grams 2X) was 3+ (75% of cells infected with selected virus) and the “CPE with 100 TCID50 doses” value ([3]; 10^-15 grams 2X) was 1+ (25% of cells infected with selected virus). The “CPE with 100 TCID50 doses” value ([3]; 10^-16 grams 2X) was 4+ (100% of cells infected with selected virus), the “CPE with 100 TCID50 doses” value ([3]; 10^-17 grams 2X) was 4+ (100% of cells infected with selected virus) and the “CPE with 100 TCID50 doses” value ([3]; 10^-18 grams 2X) was 2+ (50% of cells infected with selected virus). The “CPE of herpes virus” value ([3]; both the 10^-12 and 10^-15 level) was “inhibited” and the “lung infection compared with the other four groups and the controls” value [4] was “for all practical purposes, clear of infection”.
